Values of other authors, collected in patent publication US20060078615A1, “Bilayer tablet of telmisartan and simvastatin” (Boehringer Ingelheim International GmbH, priority 2004, published 2006).

Details: physiological pH range of the gastrointestinal tract, pH 1 to 7; free acid form

In the case of `CCCc1nc2c(C)cc(-c3nc4ccccc4n3C)cc2n1Cc1ccc(-c2ccccc2C(=O)O)cc1` [Telmisartan, 4′-[2-n-propyl-4-methyl-6-(1-methylbenzimidazol-2-yl)benzimidazol-1-ylmethyl]biphenyl-2-carboxylic acid], the “solubility in aqueous systems” value is given as “very poor solubility”.
